Values of other authors as cited in patent publication US20260007589A1, “METHOD FOR DYEING KERATINOUS MATERIAL COMPRISING THE USE OF AN ORGANOSILICON COMPOUND, AN EFFECT PIGMENT, AND A FILM-FORMING POLYMER III” (Henkel AG & Co. KGaA, priority 2019, published 2026).
Where two headings read alike, the source gives them in different places.

solubility in water (at 25° C.) | SMILES | solubility in water (25° C.)
– | CCN(Cc1cccc(S(=O)(=O)[O-])c1)c1ccc(C(=C2C=CC(=[N+](CC)Cc3cccc(S(=O)(=O)[O-])c3)C=C2)c2ccccc2S(=O)(=O)[O-])cc1.[Na+].[Na+] [Acid Blue 9] | more than 20 % by weight
– | O=S(=O)([O-])c1ccc(N=Nc2c(O)ccc3ccccc23)cc1.[Na+] [Acid Orange 7, sodium salt of 4-[(2-hydroxy-1-naphthyl)azo]benzene sulphonate] | more than 7 g/L
– | Nc1cc(S(=O)(=O)[O-])cc2cc(S(=O)(=O)[O-])c(N=Nc3ccccc3)c(O)c12.[Na+].[Na+] [Acid Red 33, disodium salt of 5-amino-4-hydroxy-3-(phenylazo)-naphthalene-2,7-disulphonate] | 2500 µg/mL
– | O=C([O-])c1c(Cl)c(Cl)c(Cl)c(Cl)c1-c1c2c(Br)cc(=O)c(Br)c-2oc2c(Br)c(O)cc(Br)c12.O=C([O-])c1c(Cl)c(Cl)c(Cl)c(Cl)c1-c1c2c(Br)cc(=O)c(Br)c-2oc2c(Br)c(O)cc(Br)c12.[Na+].[Na+] [Acid Red 92, disodium salt of 3,4,5,6-tetrachloro-2-(1,4,5,8-tetrabromo-6-hydroxy-3-oxoxanthen-9-yl)benzoic acid] | greater than 10 g/L
highly soluble in water | O=C([O-])C1=NN(c2ccc(S(=O)(=O)[O-])cc2)C(=O)C1N=Nc1ccc(S(=O)(=O)[O-])cc1.[Na+].[Na+].[Na+] (centres unmarked) [Acid Yellow 23, trisodium salt of 4,5-dihydro-5-oxo-1-(4-sulfophenyl)-4-((4-sulfophenyl)azo)-1H-pyrazole-3-carboxylic acid] | –
